Tests used:
[1] = system: CT26 parental tumor (KRAS G12D); test: Anti-tumor efficacy in CT26 parental (wild-type) colon carcinoma model; format: in vivo, mouse
Experimental: (§1) An in vivo anti-tumor efficacy of combination treatment of Anti-PD1 and Compound I in a CT26 mouse model was evaluated. CT26 is a colon carcinoma cell line with an endogenous KRAS G12D mutation. The experiment was performed in the parental/wild type line and in a line engineered with an STK11 knock-out (CT26_STK11KO) resulting in an anti-PD1 resistant model with lower CD8+ T cell infiltration.
In each of the experiments, the animals (8/group) were divided into four groups. Group I was treated with a control antibody Anti-IgG2, group 2 was treated with Compound I 75 mg/kg, group 3 was treated with anti-PD1 antibody, and group 4 was treated with Compound I 75 mg/kg and anti-PD1 antibody. Tumor volume and survival was monitored over the course of treatment. For the CT26_STK11KO model, the tumor volume was plotted by individual animal (FIG. 15A) and by treatment group (FIG. 15B). Survival was plotted by treatment group (FIG. 15C).
For the CT26 parental model, the tumor volume was plotted by treatment group (FIG. 15D) and by individual animal for groups 1 and 4 (FIG. 15E).
as §1, with “anti-CTLA4” for “Anti-PD1”, “anti-CTLA4-resistant model.” for “anti-PD1 resistant model with lower CD8+ T cell infiltration.”
An in vivo anti-tumor efficacy of double combination treatment of Anti-CTLA4 and Compound I in a CT26 syngeneic model was performed. CT26 is a colon carcinoma cell line. The experiment was also performed with an STK11-null CT26 model, this model is CTLA4 resistant.
There were 8 mice per group. Group I was treated with a control antibody Anti-IgG2, group 2 was treated with Compound I 75 mg/kg, group 3 was treated with anti-CTLA4 antibody, and group 4 was treated with Compound I 75 mg/kg and anti-CTLA4 antibody. Tumor volume was monitored over the course of treatment. The tumor volume was plotted by treatment group (FIG. 16A), and the individual animals were plotted for group 1 and group 4 (FIG. 16B), for the parental model. The tumor volume was plotted by treatment group (FIG. 16C), and the individual animals were plotted for group 1 and group 4 (FIG. 16D), for the STK11 knockout model.

[2] = Pharmacokinetics in cynomolgus monkeys; format: in vivo; conditions: cynomolgus monkey, plasma
Experimental: The PK of Compound I in male cynomolgus monkeys was determined in plasma following single IV bolus and PO administration to non-naïve male cynomolgus s monkeys The vehicle used for IV was 20% wt/vol HPβCD, 1% vol/vol DMSO in saline and for PO was in 0.5% MC (suspension). Plasma samples were collected from 3 animals/group at 0.083, 0.25, 0.5, 1, 3, 6, 9, 12, 24, and 48 hours after dosing.

CYP2D6 = CYP2D6 (Homo sapiens, UniProt P10635); test: Metabolism by recombinant human CYP2D6; format: in vitro ADME; conditions: read-out: terminal half life (T1/2), rh CYP2D6
Experimental: Drug metabolizing enzymes involved in the biotransformation of Compound I were investigated using human liver microsomes (HLM) and recombinant enzymes. Compound I was stable in HLMs (>93% remaining after 240 minutes of incubation with HLM protein concentration at 0.6 mg/ml). CYP selective inhibitor experiments were not performed due to lack of appreciable Compound I turnover.

H3K9Ac = H3K9Ac in MC38 tumor tissue by Western blot; format: in vivo, mouse; conditions: 3, 10, 30 mg/kg for 7 days; tissue 8 hours post last dose; normalized to total histone H3
Experimental: Formation and accumulation of acetylated histone 3 lysine 9 (H3K9Ac) in MC38 tumor tissue from mouse after treatment with Compound I was determined by Western blot. Briefly, female C57BL/6 mice with MC38 tumors were treated with Compound I for 7 days at the indicated dose (3 mg/kg, 10 mg/kg, and 30 mg/kg). Tissue was collected 8 hours post last dose and the H3K9Ac accumulation was quantified by Western blot in (FIG. 14A) and normalized to total histone H3 (FIG. 14B).

acetyl-histone H3 = test: PK/PD study, acetyl-histone H3 in tumor by Western blot; format: in vivo, C57BL/6 mice
Experimental: (§2) In a separate PK/PD study, MC38 tumor-bearing female C57BL/6 mice (12/group) were assigned to treatment groups with similar mean tumor volumes of approximately 430 mm^3 and treated with vehicle (5% N,N-dimethylacetamide [DMA]+30% polyethylene glycol [PEG] 400+65% of 30% 2-hydroxypropyl-beta-cyclodextrin [HP-β-CD] in water) or Compound I at 30, 100, and 300 mg/kg once daily (QD) for 2 days. Plasma samples were collected at 1, 2, 8 and 24 hours after last dose and analyzed for Compound I concentrations. Peripheral blood mononuclear cells (PBMC) and tumor samples were harvested at 2, 8, and 24 hours after last dose. The PBMC samples were processed for determination of mean florescent level of acetyl-histone H2B by flow cytometry. Tumor samples were processed for determination of protein levels of acetyl-histone H3 by Western blot.

[3] = PK/PD study, body weight and clinical signs; format: in vivo, C57BL/6 mice; conditions: 30, 100, 300 mg/kg QD for 2 days
Experimental: as §2

[4] = system: cytokines and antigen presentation genes; test: Nanostring PanCancer IO 360 cytokine and HLA gene profiling of STK11-/- MC38; set-up: species or system mouse; conditions: 30 mg/kg for 7 days in vivo; 0.2 uM for 4 days in vitro
Experimental: The cytokine expression of tumors from mice treated with Compound I was determined by Nanostring PanCancer IO 360 analysis.
Briefly, STK11−/− MC38 tumors from mice treated for 7 days with 30 mg/kg of Compound I or anti-PD1 antibody alone or in combination were collected 8 hours post last dose. The gene expression profiles of CXCL9, CXCL10, and CXCL11 of the tumors were determined by Nanostring PanCancer IO 360 (FIG. 9A). Additionally, the gene expression profiles of Treg-recruiting chemokines CCL1 and CCL22 of the tumors were determined by Nanostring PanCancer IO 360 (FIG. 9B).
STK11-deficient MC38 cells were also profiled for HLA gene expression by Nanostring IO360 panel in vitro after 4 days of treatment with Compound I at 0.2 uM compared to DMSO solvent control (FIG. 9C).

[5] = Compound I 75 mg/kg QD alone, second of two values (two experiments, Examples 14 and 15)
[6] = Compound I 75 mg/kg QD, antibodies 10 mg/kg, for Compound I alone the first of two printed values

CYP2D6, sequence (P10635 whole entry): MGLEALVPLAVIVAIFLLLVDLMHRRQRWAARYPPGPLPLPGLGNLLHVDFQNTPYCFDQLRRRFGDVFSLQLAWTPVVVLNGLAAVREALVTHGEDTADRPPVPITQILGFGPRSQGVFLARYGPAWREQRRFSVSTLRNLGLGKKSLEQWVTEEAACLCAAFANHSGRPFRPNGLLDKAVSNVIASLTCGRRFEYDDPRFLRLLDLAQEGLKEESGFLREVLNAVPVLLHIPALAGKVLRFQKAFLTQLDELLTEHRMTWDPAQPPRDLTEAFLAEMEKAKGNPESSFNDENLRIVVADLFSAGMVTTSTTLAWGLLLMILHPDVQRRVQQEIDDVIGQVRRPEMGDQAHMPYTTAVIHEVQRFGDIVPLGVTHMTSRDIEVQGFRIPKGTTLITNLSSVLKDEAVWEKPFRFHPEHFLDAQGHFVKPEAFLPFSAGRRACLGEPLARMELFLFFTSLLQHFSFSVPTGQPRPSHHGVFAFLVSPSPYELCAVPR

## C[S@@](=N)(=O)c1ccc(C(=O)Nc2cc(-c3ccc(F)cc3)ccc2N)cc1 [Compound I, (R)—N-(4-amino-4′-fluoro-[1,1′-biphenyl]-3-yl)-4-(S-methylsulfonimidoyl)benzamide]
[1]; [5]
  ORR %: 63/63%
  TGI %: 66%
[1]; [6]
  ORR %: 63/63%
  TGI %: 84%
[2]; po, male cynomolgus monkeys, suspension at 3 mg/kg, fed, read-out: PO bioavailability (% F)
  bioavailability: 83%
[2]; male
  half-life: 6.8 h
[2]; male, intravenous, read-out: CL, p
  clearance: 9.4 mL/min/kg
CYP2D6
  half-life: > 1 h
H3K9Ac
  H3K9Ac accumulation in MC38 tumor tissue: dose dependent accumulation of H3K9Ac
acetyl-histone H3; 300 mg/kg QD, 2 days, 24 hours after last dose, vs vehicle control
  maximal induction of histone acetylation in tumor: 3.7 fold
acetyl-histone H3; 30, 100, 300 mg/kg QD, starting 2 hours after last dose
  tumor acetyl-histone protein levels: dose-dependent increase
[3]
  body weight loss and clinical signs: No obvious body weight loss of more than 5% or adverse clinical signs
[4]
  immune evasion; expression of cytokines and antigen presentation genes: reverses immune evasion on tumor cells

From patent US20260041653A1, “AN HDAC INHIBITOR FOR TREATING CANCER WITH A MODIFIED STK11 ACTIVITY OR EXPRESSION” (Tango Therapeutics, Inc., priority 2022, published 2026)
